Source: ChEMBL document CHEMBL1201862, “PubChem BioAssay data set” (2004)
Active and inactive are the calls of the source.

How the values were obtained:
[1] = target: Glucose-6-phosphate 1-dehydrogenase (Homo sapiens, UniProt P11413); assay: inhibition of Homo sapiens G6PD, dose series – biochemical, fluorescence, selectivity assay for P. falciparum G6PD inhibitor project, dose response (AID 504792); type: functional
Cytochrome P450 2D6 = Cytochrome P450 2D6 (Homo sapiens, UniProt P10635);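 note: CYP2D6 member of a cytochrome P450 panel assay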
Cytochrome P450 2C9 = Cytochrome P450 2C9 (Homo sapiens, UniProt P11712)
[2] = A cytotoxicity screen of small molecule inhibitors of the PhoP region in Salmonella typhi identified in the primary screen. [Related pubchem assays: 1850, 1864, 1985 ]; type: functional
[3] = target: Luciferin 4-monooxygenase (Photinus pyralis, UniProt P08659); assay: Counter Screen for Luciferase-based Assay Positives. [Related pubchem assays: 620, 618, 411 ]
HT-1080 = assay: HT1080 cell viability loss – fluorescence readout (AID 620); type: functional, cell-based; settings: Homo sapiens
Vero = assay: viability of Vero cells under compound – cytotoxicity control for flavivirus capping enzyme inhibitors (AID 588742); type: functional; settings: Chlorocebus sabaeus
[4] = target: T1, Sentrin-specific protease 8 (Homo sapiens, UniProt Q96LD8); type: functional
T1 sequence (Q96LD8 whole entry): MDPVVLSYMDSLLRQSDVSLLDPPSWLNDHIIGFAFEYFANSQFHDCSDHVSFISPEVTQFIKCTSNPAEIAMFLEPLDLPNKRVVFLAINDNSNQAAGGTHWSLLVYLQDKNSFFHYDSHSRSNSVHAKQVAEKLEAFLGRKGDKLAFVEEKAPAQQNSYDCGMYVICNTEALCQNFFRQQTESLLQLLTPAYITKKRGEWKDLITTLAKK

[5] = target: T1, Sentrin-specific protease 8; type: functional; remark: listed apart in the source
[6] = Trypanosoma cruzi growth suppression in host cells – NIH3T3 host cells, beta-gal luminescence, confirmation (AID 2044); type: functional, cell-based;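 note: intracellular parasites grown in NIH/3T3 mouse fibroblasts as host cells; luminescent beta-galactosidase reporter signal from transgenic T. cruzi replicating inside host cells; inhibitors lower the luminescence signal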
[7] = NIH3T3 cell viability loss – ATP luminescence, mouse fibroblasts, counter-screen, dose response (AID 2010); type: functional, cell-based;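 note: cells exposed to compound for about 90 hours before reading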
Cytochrome P450 3A4 = Cytochrome P450 3A4 (Homo sapiens, UniProt P08684); settings: Potency;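 note: confirmatory qHTS run detecting inhibitors and substrates of CYP3A4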
[8] = target: T2, Short transient receptor potential channel 4 (Mus musculus, UniProt Q9QUQ5); assay: block of DAMGO-driven TRPC4 calcium entry – cell-based, HEK293 TRPC4/mu-opioid, Fluo-4 calcium, dose response (AID 434942); type: functional;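 note: potency of inhibitors blocking the TRPC4 calcium response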
T2 sequence (Q9QUQ5 whole entry): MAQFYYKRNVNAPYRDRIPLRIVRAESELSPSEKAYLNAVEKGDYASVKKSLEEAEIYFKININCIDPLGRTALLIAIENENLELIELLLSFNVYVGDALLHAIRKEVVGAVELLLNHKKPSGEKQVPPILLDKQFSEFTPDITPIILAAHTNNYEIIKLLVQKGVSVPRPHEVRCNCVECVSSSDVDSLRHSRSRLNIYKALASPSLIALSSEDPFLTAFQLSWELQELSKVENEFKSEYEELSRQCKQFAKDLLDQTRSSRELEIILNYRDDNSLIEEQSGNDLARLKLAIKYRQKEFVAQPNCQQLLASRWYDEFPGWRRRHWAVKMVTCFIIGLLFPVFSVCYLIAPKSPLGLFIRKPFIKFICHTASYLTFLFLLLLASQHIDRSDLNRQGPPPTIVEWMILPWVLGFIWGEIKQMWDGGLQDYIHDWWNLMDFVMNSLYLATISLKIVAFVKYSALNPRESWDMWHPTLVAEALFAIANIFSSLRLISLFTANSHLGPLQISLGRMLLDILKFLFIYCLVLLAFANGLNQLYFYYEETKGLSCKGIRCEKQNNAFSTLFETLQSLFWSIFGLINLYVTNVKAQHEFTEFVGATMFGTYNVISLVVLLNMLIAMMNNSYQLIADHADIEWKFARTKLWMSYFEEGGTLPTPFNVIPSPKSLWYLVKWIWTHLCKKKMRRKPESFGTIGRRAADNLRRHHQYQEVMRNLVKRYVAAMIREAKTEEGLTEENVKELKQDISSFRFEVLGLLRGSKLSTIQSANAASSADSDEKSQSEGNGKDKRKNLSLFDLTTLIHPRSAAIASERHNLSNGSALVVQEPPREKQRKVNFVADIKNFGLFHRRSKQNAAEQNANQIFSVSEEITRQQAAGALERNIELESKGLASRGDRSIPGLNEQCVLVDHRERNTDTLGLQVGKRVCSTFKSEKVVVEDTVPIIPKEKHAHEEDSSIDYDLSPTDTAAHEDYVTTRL

[9] = target: T2, Short transient receptor potential channel 4; assay: calcium entry via TRPC4 opening agents – cell-based, HEK293 TRPC4/mu-opioid, Fluo-4 calcium, dose response (AID 434937); type: functional
Escherichia coli = assay: microbe, parasite or virus in culture

Chain of Luciferin 4-monooxygenase (P08659 whole entry): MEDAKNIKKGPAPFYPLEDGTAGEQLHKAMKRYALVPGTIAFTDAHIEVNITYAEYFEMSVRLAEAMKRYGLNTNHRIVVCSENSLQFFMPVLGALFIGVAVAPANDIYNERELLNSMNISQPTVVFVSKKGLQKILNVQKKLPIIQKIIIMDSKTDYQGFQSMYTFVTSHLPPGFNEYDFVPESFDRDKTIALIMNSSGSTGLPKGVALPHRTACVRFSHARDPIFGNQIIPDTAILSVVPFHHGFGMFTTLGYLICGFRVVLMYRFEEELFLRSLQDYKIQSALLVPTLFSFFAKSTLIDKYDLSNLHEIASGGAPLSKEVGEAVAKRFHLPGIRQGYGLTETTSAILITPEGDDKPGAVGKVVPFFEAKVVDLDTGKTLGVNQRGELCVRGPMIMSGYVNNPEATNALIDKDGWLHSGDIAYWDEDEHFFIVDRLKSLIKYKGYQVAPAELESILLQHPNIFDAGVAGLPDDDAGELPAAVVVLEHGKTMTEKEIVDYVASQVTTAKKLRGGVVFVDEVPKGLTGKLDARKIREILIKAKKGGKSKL
Chain of Cytochrome P450 3A4 (P08684 whole entry): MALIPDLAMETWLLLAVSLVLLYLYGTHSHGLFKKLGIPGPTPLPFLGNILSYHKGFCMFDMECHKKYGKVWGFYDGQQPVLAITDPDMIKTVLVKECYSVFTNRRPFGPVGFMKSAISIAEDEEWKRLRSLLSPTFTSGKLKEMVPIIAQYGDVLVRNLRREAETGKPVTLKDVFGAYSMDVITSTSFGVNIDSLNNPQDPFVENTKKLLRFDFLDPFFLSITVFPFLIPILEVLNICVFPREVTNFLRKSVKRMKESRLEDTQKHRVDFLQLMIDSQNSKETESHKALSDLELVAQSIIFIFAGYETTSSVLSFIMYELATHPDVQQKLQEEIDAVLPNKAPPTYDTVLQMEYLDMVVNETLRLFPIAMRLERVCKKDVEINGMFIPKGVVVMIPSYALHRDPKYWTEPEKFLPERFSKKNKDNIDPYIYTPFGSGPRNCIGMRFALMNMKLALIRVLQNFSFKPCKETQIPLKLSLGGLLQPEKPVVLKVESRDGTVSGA
Chain of Cytochrome P450 2D6 (P10635 whole entry): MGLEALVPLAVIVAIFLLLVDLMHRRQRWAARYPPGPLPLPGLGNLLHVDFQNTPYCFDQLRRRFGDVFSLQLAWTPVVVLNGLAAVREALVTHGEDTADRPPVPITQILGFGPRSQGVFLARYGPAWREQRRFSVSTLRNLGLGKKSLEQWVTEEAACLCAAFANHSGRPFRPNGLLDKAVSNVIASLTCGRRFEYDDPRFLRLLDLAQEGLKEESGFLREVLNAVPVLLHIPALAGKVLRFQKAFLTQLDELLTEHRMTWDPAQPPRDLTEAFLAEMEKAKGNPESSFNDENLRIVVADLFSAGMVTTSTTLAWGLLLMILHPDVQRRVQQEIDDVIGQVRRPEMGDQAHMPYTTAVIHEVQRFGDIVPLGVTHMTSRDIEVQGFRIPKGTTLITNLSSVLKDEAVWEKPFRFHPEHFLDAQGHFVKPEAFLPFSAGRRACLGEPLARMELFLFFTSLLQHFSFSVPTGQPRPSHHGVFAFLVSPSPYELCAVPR
Chain of Cytochrome P450 2C9 (P11712 whole entry): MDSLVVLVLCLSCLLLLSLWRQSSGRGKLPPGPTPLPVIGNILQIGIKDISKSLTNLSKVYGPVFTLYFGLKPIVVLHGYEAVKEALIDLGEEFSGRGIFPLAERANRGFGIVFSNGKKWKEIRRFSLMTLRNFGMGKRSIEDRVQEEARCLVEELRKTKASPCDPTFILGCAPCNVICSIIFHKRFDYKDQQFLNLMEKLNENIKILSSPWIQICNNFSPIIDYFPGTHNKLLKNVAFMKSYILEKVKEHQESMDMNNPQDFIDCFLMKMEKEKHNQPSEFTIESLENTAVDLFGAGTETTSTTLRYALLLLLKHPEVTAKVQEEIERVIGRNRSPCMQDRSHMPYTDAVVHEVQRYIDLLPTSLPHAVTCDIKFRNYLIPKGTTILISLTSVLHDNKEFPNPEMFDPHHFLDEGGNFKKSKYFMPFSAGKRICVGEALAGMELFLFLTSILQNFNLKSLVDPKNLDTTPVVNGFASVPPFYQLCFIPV
Chain of Glucose-6-phosphate 1-dehydrogenase (P11413 whole entry): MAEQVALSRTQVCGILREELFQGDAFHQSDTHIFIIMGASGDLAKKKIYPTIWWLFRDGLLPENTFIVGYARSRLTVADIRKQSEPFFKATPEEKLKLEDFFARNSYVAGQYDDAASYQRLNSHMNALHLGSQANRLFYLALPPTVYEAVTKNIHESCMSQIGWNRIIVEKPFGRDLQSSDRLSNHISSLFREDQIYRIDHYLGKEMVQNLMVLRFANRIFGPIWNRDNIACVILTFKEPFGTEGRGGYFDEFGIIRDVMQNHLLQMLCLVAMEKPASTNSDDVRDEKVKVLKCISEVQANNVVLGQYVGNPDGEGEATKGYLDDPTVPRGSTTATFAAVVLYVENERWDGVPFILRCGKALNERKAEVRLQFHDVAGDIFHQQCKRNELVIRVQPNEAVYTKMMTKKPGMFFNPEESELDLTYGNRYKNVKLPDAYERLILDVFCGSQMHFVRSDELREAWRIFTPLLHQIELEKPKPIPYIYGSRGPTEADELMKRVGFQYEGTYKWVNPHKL

Compound: Cc1ccc(NS(=O)(=O)c2ccccc2Cl)c2c1CC(C)(C)O2
- IC50 [1]: > 80 µM (inactive)
- AC50 (Cytochrome P450 2D6): 15.8 µM (inconclusive)
- AC50 (Cytochrome P450 2C9): inconclusive

Compound: COc1ccccc1-c1cc2nc(C)c(CCC(=O)NC(C)CCc3ccco3)c(C)n2n1 (configuration not stated)
- EC50 [2]: > 50 µM (active)

Compound: Cc1ccc(CNc2nc3ccccc3s2)s1
- EC50 [3]: 14.4 µM (active)
- EC50 (HT-1080): > 50 µM (not active)

Compound: Cc1cc(Cl)ccc1OCCCC(=O)N1CCCc2ccccc21
- EC50 [2]: > 50 µM (active)

Compound: COc1ccc(C(=O)c2c3ccc([N+](=O)[O-])cc3[n+]([O-])n2CCCN)cc1
- CC50 (Vero): 30.6 µM (active)
- IC50 [4]: 14.4 µM (active)
- IC50 [5]: 9.21 µM (active)

Compound: CCn1cc(/C=C/C(=O)Nc2ccn(Cc3c(F)c(F)cc(F)c3F)n2)cn1
- IC50 [4]: 28.9 µM (active)
- IC50 [5]: 9.64 µM (active)

Compound: CC(C)c1ccc2oc(-c3ccc(N)cc3)nc2c1
- EC50 [3]: 12.3 µM (active)
- EC50 (HT-1080): > 50 µM (not active)

Compound: O=C(NCC(c1cccnc1)N1CCN(c2ccc(F)cc2)CC1)OCc1ccccc1 (configuration not stated)
- EC50 [6]: < 0.1 µM (active)
- EC50 [7]: > 60 µM (not active)
- EC50 (cells): 0.089 µM (active)

Compound: CCN1CCCC1CNC(=O)c1cc2cc(F)ccc2[nH]1 (configuration not stated)
- EC50 [2]: > 50 µM (active)

Compound: OC1CCN(Cc2ccc(OCc3ccccc3)cc2)CC1
- EC50 [6]: < 0.1 µM (active)
- EC50 [7]: > 60 µM (not active)
- EC50 (cells): 0.207 µM (active)

Compound: CCCCCCC(=O)N(O)C1CC(=O)N(Cc2ccccc2)C1=O (configuration not stated)
- EC50 [2]: > 50 µM (active)

Compound: CC1(C)CC[C@]2(C(=O)O)C(O)C[C@@]3(C)C(=CCC4[C@@]5(C)CCC(O)C(C)(C)C5CC[C@@]43C)C2C1 (some centres not stated)
- AC50 (Cytochrome P450 3A4): 15.8 µM (inconclusive)

Compound: CCOC(=O)c1ccc(NC(=O)CN2CCc3ccccc3C2)cc1
- IC50 [4]: > 100 µM (inactive)
- IC50 [5]: 21.6 µM (active)

Compound: CCOc1ccc(OCc2ccc(C(=O)O)o2)cc1
- EC50 [3]: 0.36 µM (active)
- EC50 (HT-1080): > 50 µM (not active)

Compound: O=C(Nc1ccccc1)Oc1cccnc1O
- EC50 [2]: > 50 µM (active)

Compound: CN(C)CCCN(C(=O)c1ccc(S(=O)(=O)N(C)C)cc1)c1nc2ccc(F)cc2s1
- EC50 [6]: < 0.1 µM (active)
- EC50 [7]: > 60 µM (not active)
- EC50 [8]: 5.96 µM (active)
- EC50 [9]: 9.44 µM (active)
- EC50 (cells): 0.012 µM (active)

Compound: COc1ccccc1NS(=O)(=O)c1cccc(NC2=NC(=N)c3ccccc32)c1
- AC50 (Escherichia coli): 99.5 µM (active)

Compound: COC(=O)C1(S(=O)(=O)C2(C(=O)OC)CCCC2)CCCC1
- AC50 (Escherichia coli): > 150 µM (inactive)

Compound: CC(C)Sc1nc2c(c(=O)[nH]c(=O)n2C)n1CCc1ccccc1
- AC50 (Escherichia coli): 33.2 µM (active)

Compound: CCCn1c(-c2ccc(F)cc2)nc2c(NCC3CCCN3CC)nc(C)nc21 (configuration not stated)
- AC50 (Cytochrome P450 3A4): 15.8 µM (inconclusive)
